From patent US7026339B2, “Inhibitors of HCV NS5B polymerase” (priority 2003, dated 2006)

Tested on: HuH-7 replicon cells 5–15 and 9–13 (HCV replication)
Assay: Inhibition of viral replication in HuH-7 replicon cells (HCV RNA / GAPDH RNA by multiplex RT-PCR)
Type: cell-based
Conditions: Hepatitis C virus, 72 h; inhibiting 50% of replication; HuH-7 replicon cells, 3 days; read-out: IC50
Procedure: Compounds were evaluated for inhibition of viral replication according to published procedures (Bartenschlager, R., et. al., Science, 1999, 285, 110) with modifications as follows.
HuH-7 replicon cells 5–15 and 9–13 were cultured in Dulbecco's minimal essential medium (DMEM) containing high glucose and supplemented with 10% fetal bovine serum (FBS), L-glutamine (2 mM), non-essential amino acids (1×), Penicillin (100 IU/mL)/Streptomycin (100 μg/mL) and G418 (Geneticin, 750 μg/mL). Unless otherwise specified, all media components were obtained from Invitrogen. Replicon cell line stocks were maintained as sub-confluent monolayers by passaging every Monday (1:6 split) and Thursday (1:10 split) and incubated at 37° C. with 5% CO2. Tissue culture plates (96-well white clear bottom plates, Corning #3610) were seeded at 7×10^3 cells/well and incubated for 24 hours prior to addition of the compounds.
Compounds in dry powder form were diluted in DMSO (30 mM stock). Serial dilutions of each Compound in DMSO (10 mM–0.1 mM) were performed in a 96-well polypropylene plate using a microtiter format. Culture media (200 μl) was added to the corresponding wells of a sterile 96-well round bottom plate. Diluted compound (2 μl) was added to the corresponding wells of the medial plate (final compound concentrations: 100 μM–1 μM). Culture media was removed from the corresponding wells of the 96-well plate containing the replicon cells and 150 μl diluted compound added. Media containing 1% DMSO and a serially diluted IFN were included on each plate. The cultures were incubated at 37° C. with 5% CO2 for 3 days. Cultures were observed visually for cytotoxicity or compound precipitation prior to RNA extraction described below.
Total cellular RNA was extracted by spin column technology (RNeasy 96, Qiagen) using the vacuum methodology according to the manufacturer's protocol. In brief, culture media was removed and 100 μl RLT lysis buffer containing 0.14M β-mercaptoethanol (β-ME) was added to each well. The plate was kept flat on the laboratory bench and shaken vigorously to lyse the cells. An equal volume of 70% ETOH was mixed with the lysate and added to the corresponding columns of the RNeasy 96-well plate. Vacuum was applied to draw the lysate through the filters. After ventilating the plate, buffer RW1 (1 mL) was drawn through each column. The waste tray was emptied and the filters washed twice with buffer RPE (1 mL/wash). After ventilating the tray, the RNeasy plate was removed and the bottom of the plate struck several times on a stack of paper towels to remove excess wash buffer. The waste tray was removed from the vacuum apparatus and the RNeasy 96-well plate dried by applying vacuum for 10 minutes. Total cellular RNA was eluted from the columns with two washes of 60 μl RNase-free water.
Relative quantitative multiplex RT-PCR was performed using TaqMan (TM) EZ RT Core Reagent kit (Perkin Elmer) according to the manufacturer's protocol (PE Applied Biosystems User Bulletin #2). Primer 061 (NT 61–82) and 139 (NT 139–158) amplifying a short region in the 5′ untranslated region of the HCV genome were utilized at 300 nM final concentrations. Probe #3 (NT 97–119) labeled with FAM reporter dye was utilized at 200 nM final concentration. Pre-developed human GAPDH primers and probe labeled with VIC reporter dye were obtained from PE Applied Biosystems (# 4310884E) and used according to the manufacturer's protocol. TM RT-PCR master mix was prepared containing the above primers/probe for both target RNA. Total cellular RNA (2 μl) was added to the reaction tubes of a 96-well optical plate that corresponded to the wells of the replicon culture plate. The final volume of each reaction was 50 μl. A standard curve was prepared from ten-fold serial dilutions of total cellular RNA extracated from 10^6 replicon cells and eluted in 30 μl RNase-free water. […]

SMILES | IC50 [µM]
O=C(Cc1cc(C(F)(F)F)cc(C(F)(F)F)c1)N/N=C/c1ccccc1OS(=O)(=O)c1ccc(C(F)(F)F)cc1 [Compound 39, 2-[(E)-(2-{2-[3,5-bis(trifluoromethyl)phenyl]acetyl}hydrazono)-methyl]phenyl 4-(trifluoromethyl)benzenesulfonate] | < 5
O=C(Cc1ccccc1Br)N/N=C/c1ccccc1OS(=O)(=O)c1ccc(C(F)(F)F)cc1 [Compound 40, 2-((E)-{2-[2-(2-bromophenyl)acetyl]hydrazono}methyl)-phenyl 4-(trifluoromethyl)benzenesulfonate] | < 5
O=C(Cc1ccccc1F)N/N=C/c1ccccc1OS(=O)(=O)c1ccc(C(F)(F)F)cc1 [Compound 41, 2-((E)-{2-[2-(2-fluorophenyl)acetyl]hydrazono}methyl)-phenyl 4-(trifluoromethyl)benzenesulfonate] | < 5
Cc1ccccc1CC(=O)N/N=C/c1ccccc1OS(=O)(=O)c1ccc(C(F)(F)F)cc1 [Compound 42, 2-((E)-{-[2-(2-methylphenyl)acetyl]hydrazono}methyl)-phenyl 4-(trifluoromethyl)benzenesulfonate] | < 5
O=C(Cc1ccc2c(c1)OCO2)N/N=C/c1ccccc1OS(=O)(=O)c1ccc(C(F)(F)F)cc1 [Compound 43, 2-((E)-{2-[2-(1,3-benzodioxol-5-yl)acetyl]hydrazono}methyl)phenyl 4-(trifluoromethyl)benzenesulfonate] | < 5
COc1ccc(CC(=O)N/N=C/c2ccccc2OS(=O)(=O)c2ccc(C(F)(F)F)cc2)cc1 [Compound 44, 2-((E)-{2-[2-(4-methoxyphenyl)acetyl]hydrazono}methyl)-phenyl 4-(trifluoromethyl)benzenesulfonate] | < 5
O=C(CC1CCCCC1)N/N=C/c1ccccc1OS(=O)(=O)c1ccc(C(F)(F)F)cc1 [Compound 45, 2-{(E)-[2-(2-cyclohexylacetyl)hydrazono]methyl}phenyl4-(trifluoromethyl)benzenesulfonate] | < 5
O=C(CCCc1ccccc1)N/N=C/c1ccccc1OS(=O)(=O)c1ccc(C(F)(F)F)cc1 [Compound 46, 2-{(E)-[2-(4-phenylbutanoyl)hydrazono]methyl}phenyl4-(trifluoromethyl)benzenesulfonate] | 5 to 50
O=C(CCCCc1ccccc1)N/N=C/c1ccccc1OS(=O)(=O)c1ccc(C(F)(F)F)cc1 [Compound 47, 2-{(E)-[2-(5-phenylpentanoyl)hydrazono]methyl}phenyl4-(trifluoromethyl)benzenesulfonate] | 5 to 50
O=C(Cc1cccc(F)c1)N/N=C/c1ccccc1OS(=O)(=O)c1ccc(C(F)(F)F)cc1 [Compound 48, 2-((E)-{2-[2-(3-fluorophenyl)acetyl]hydrazono}methyl)-phenyl 4-(trifluoromethyl)benzenesulfonate] | < 5
COc1ccc2[nH]cc(CC(=O)N/N=C/c3ccccc3OS(=O)(=O)c3ccc(C(F)(F)F)cc3)c2c1 [Compound 49, 2-((E)-{2-[2-(5-methoxy-1H-indol-3-yl)acetyl]hydrazono}methyl)phenyl 4-(trifluoromethyl)benzenesulfonate] | 5 to 50
COc1cc(CC(=O)N/N=C/c2ccccc2OS(=O)(=O)c2ccc(C(F)(F)F)cc2)cc(OC)c1 [Compound 50, 2-((E)-{2-[2-(3,5-dimethoxyphenyl)acetyl]hydrazono}methyl)-phenyl 4-(trifluoromethyl)benzenesulfonate] | < 5
COc1ccc(CC(=O)N/N=C/c2ccccc2OS(=O)(=O)c2ccc(C(F)(F)F)cc2)c(OC)c1 [Compound 51, 2-((E)-{2-[2-(2,4-dimethoxyphenyl)acetyl]hydrazono}methyl)-phenyl 4-(trifluoromethyl)benzenesulfonate] | < 5
O=C(Cc1ccc(Br)cc1)N/N=C/c1ccccc1OS(=O)(=O)c1ccc(C(F)(F)F)cc1 [Compound 52, 2-((E)-{2-[2-(4-bromophenyl)acetyl]hydrazono}methyl)-phenyl 4-(trifluoromethyl)benzenesulfonate] | < 5
COc1cccc(OCC(=O)N/N=C/c2ccccc2OS(=O)(=O)c2ccc(C(F)(F)F)cc2)c1 [Compound 53, 2-((E)-{2-[2-(3-methoxyphenoxy)acetyl]hydrazono}methyl)-phenyl 4-(trifluoromethyl)benzenesulfonate] | < 5
O=C(CCc1ccco1)N/N=C/c1ccccc1OS(=O)(=O)c1ccc(C(F)(F)F)cc1 [Compound 54, 2-((E)-{2-[3-(2-furyl)propanoyl]hydrazono}methyl)phenyl4-(trifluoromethyl)benzenesulfonate] | < 5
COc1cc(CC(=O)N/N=C/c2ccccc2OS(=O)(=O)c2ccc(C(F)(F)F)cc2)cc(OC)c1OC [Compound 55, 2-((E)-{2-[2-(3,4,5-trimethoxyphenyl)acetyl]hydrazono}methyl)-phenyl 4-(trifluoromethyl)benzenesulfonate] | > 50
O=C(Cc1ccccc1OCc1ccccc1)N/N=C/c1ccccc1OS(=O)(=O)c1ccc(C(F)(F)F)cc1 [Compound 56, 2-[(E)-(2-{2-[2-(benzyloxy)phenyl]acetyl}hydrazono)methyl]-phenyl 4-(trifluoromethyl)benzenesulfonate] | < 5
O=C(Cc1ccccc1Oc1ccccc1)N/N=C/c1ccccc1OS(=O)(=O)c1ccc(C(F)(F)F)cc1 [Compound 57, 2-((E)-{2-[2-(2-phenoxyphenyl)acetyl]hydrazono}methyl)-phenyl 4-(trifluoromethyl)benzenesulfonate] | < 5
COc1cccc(CCC(=O)N/N=C/c2ccccc2OS(=O)(=O)c2ccc(C(F)(F)F)cc2)c1 [Compound 58, 2-((E)-{2-[3-(3-methoxyphenyl)propanoyl]hydrazono}-methyl)phenyl 4-(trifluoromethyl)benzenesulfonate] | > 50
O=C(CSc1ccccc1)N/N=C/c1ccccc1OS(=O)(=O)c1ccc(C(F)(F)F)cc1 [Compound 59, 2-((E)-{2-[2-(phenylthio)acetyl]hydrazono}methyl)-phenyl 4-(trifluoromethyl)benzenesulfonate] | < 5
O=C(Cc1ccc(I)cc1)N/N=C/c1ccccc1OS(=O)(=O)c1ccc(C(F)(F)F)cc1 [Compound 60, 2-((E)-{2-[2-(4-iodophenyl)acetyl]hydrazono}methyl)-phenyl 4-(trifluoromethyl)benzenesulfonate] | < 5
O=C(Cc1cncc(Br)c1)N/N=C/c1ccccc1OS(=O)(=O)c1ccc(C(F)(F)F)cc1 [Compound 61, 2-((E)-{2-[2-(5-bromopyridin-3-yl)acetyl]hydrazono}methyl)phenyl 4-(trifluoromethyl)benzenesulfonate] | < 5
O=C(Cc1cccc(Br)c1)N/N=C/c1ccccc1OS(=O)(=O)c1ccc(C(F)(F)F)cc1 [Compound 62, 2-((E)-{2-[2-(3-bromophenyl)acetyl]hydrazono}methyl)-phenyl 4-(trifluoromethyl)benzenesulfonate] | < 5
O=C(Cc1ccc(Cl)nc1)N/N=C/c1ccccc1OS(=O)(=O)c1ccc(C(F)(F)F)cc1 [Compound 63, 2-((E)-{2-[2-(6-chloropyridin-3-yl)acetyl]hydrazono}methyl)phenyl 4-(trifluoromethyl)benzenesulfonate] | < 5
O=C(COc1ccccc1)N/N=C/c1ccccc1OS(=O)(=O)c1ccc(C(F)(F)F)cc1 [Compound 64, 2-{(E)-[2-(2-phenoxyacetyl)hydrazono]methyl}phenyl4-(trifluoromethyl)benzenesulfonate] | < 5
O=C(Cc1cccc2occc12)N/N=C/c1ccccc1OS(=O)(=O)c1ccc(C(F)(F)F)cc1 [Compound 65, 2-((E)-{2-[2-(1-benzofuran-4-yl)acetyl]hydrazono}methyl)phenyl 4-(trifluoromethyl)benzenesulfonate] | 5 to 50
